# Source: US20250339415A1, “DISULFIDE COMPOUNDS AS MEDICAMENTS” (CYTACOAT AB, priority 2021, published 2025)
# Several values for one entry are separate records, joined by “and”; a condition that tells them apart may be missing. Equal entries are not always repeated. Structures can show the parent of a compound that is named as a salt.
# Key:
# Candida albicans = experiment: Minimum inhibitory concentration (MIC), visible growth, YPD broth; type: cell-based
# Procedure: • 1. Using a sterile inoculating loop, transfer bacteria/Candida albicans from frozen stock culture and streak them on a fresh LA plate. • 2. Incubate the plate at 37° C. overnight (o/n) (18-24 h).
# • 1. Prepare bacterial culture by adding 20 ml Mueller Hinton broth (*) to a 250-ml Erlenmeyer flask with sidearm. • 2. Using a sterile inoculating loop, pick approximately 10 colonies from the o/n bacterial culture and transfer bacteria to the flask. • 3. Incubate the E-flask with bacteria on a rotating shaker at 37° C. until OD590=0.40. This OD should equal an approximate bacterial count of 1×10^8 cfu/ml (**) • This is measured using a colorimeter (or spectrophotometer). Set reference and press R (=reference) first, then measure the bacterial culture by pressing T (=test). • 4. At OD590 0.40, serially dilute the bacterial suspension 1:10 000 in Mueller Hinton broth to obtain a bacterial target concentration of 1×10^4 cfu/ml. Determine the initial inoculation by serially diluting 0.1 ml in 0.9 ml blanks of sterile PBS and plating 0.1 ml aliquots to LA plates, preferably. • 5. Different concentrations of the tested compound are prepared in 0.6-0.8 ml of the final dilution of bacterial suspension and placed in 2-ml test tubes. • 6. Incubate test tubes in an orbital shaker incubator at 37° C. for 24 h.
# • 7. Analyze visible growth, i.e. “Foggy” or “Clear”. MIC is being defined as the interval between the highest “Foggy” and the lowest “Clear” concentration of the compound.
# (*) When testing Candida albicans, Yeast extract Peptone Dextrose (YPD) broth is being used.
# (**) For Candida albicans it is equal to 1×10^7
# Different concentrations of PDEA were also prepared in Yeast extract Peptone Dextrose (YPD) broth. Candida albicans were inoculated to a concentration of 20 000 CFU/ml and incubated at 37° C. for 24 hours. Readouts were “Clear” and “Foggy”.
# Different concentrations of the quaternary ammonium PDEA (Example 2) were also prepared in Yeast extract Peptone Dextrose (YPD) broth. Candida albicans were inoculated to a concentration of 20 000 CFU/ml and incubated at 37° C. for 24 hours. Readouts were “Clear” and “Foggy”.
# Different concentrations of the Para position-PDEA” is (S)-4-pyridylthio cysteamine were also prepared in Yeast extract Peptone Dextrose (YPD) broth. Candida albicans were inoculated to a concentration of 20 000 CFU/ml and incubated at 37° C. for 24 hours. Readouts were “Clear” and “Foggy”.
# Different concentrations of “Carboxylic acid PDEA” is 3-(2-Pyridyldithio)propanoic acid (CAS: 68617-64-1) were also prepared in Yeast extract Peptone Dextrose (YPD) broth. Candida albicans were inoculated to a concentration of 20 000 CFU/ml and incubated at 37° C. for 24 hours. Readouts were “Clear” and “Foggy”.
# 5637 cells = experiment: Cancer cell viability assay (XTT); type: cell-based, human; details: for % cell survival / Absorbance unit / Absorbance unit - Blank: triplicate, (hydrochloride)
# Procedure: (§1) Two types of human uroepithelial cancer cells (124 and 5637) were tested in an XTT assay. “T24” cells were cultured in McCoy's 5A (Modified) Medium, Catalog number: 16600082 from GIBCO. “5637” cells were cultured in RPMI 1640 Medium, Catalog number: 21875034 from GIBCO. Different concentrations of 2-(Pyridyldithio)ethylamine (hydrochloride) (PDEA) (CAS: 106139-15-5): 12.5, 25, 50, 100 and 200 μM, were prepared in each cell culture medium.
# (§2) 1. 5×10^5 cells were seeded into 24-well plate overnight at 37-degree C. in 5% CO2.
# (§3) 2. 80% confluent cells were treated with 200 μl medium with different concentrations of PDEA and the control.
# (§4) 3. After 24 hrs, medium (MacCoy's 5a for T24, RPMI for 5637) was removed and cells were washed 2 times with 200 μl of pre-warmed PBS/well. 200 μl (96-well) of pre-prepared fresh medium containing XTT-menadione to wells were added (mentioned below).
# (§5) 4. Cells were incubated for at least 3 h at 37-degree C. Medium with XTT only in empty wells were served as background control.
# (§6) 5. The supernatant was transferred to 96-well plate and the concentration were measured at 450 nm and 690 nm. 690 nm was used as a background measurement and subtracted from 450 nm value.
# (§7) Menadione (172.18 g/mol, light sensitive): dissolve 1 mg/ml in absolute ethanol. XTT: 1 mg/ml dissolve in PBS, 0.2 μm filtrate sterilised, store at −20° C. (Sigma X4626). Pre-warm to 37° C. before use.
# (§8) Prepare solution: Add 2.15 μl of menadione/ml (final concentration 12.5 μM 0 2.15 mg/l) to 1 ml of XTT directly before use. Prepare XTT-menadione solution equal to 20% of the culture medium volume to be tested.
# (§9) Results are shown below and represented graphically in FIGS. 1 and 2. “Blank” is cell culture medium only.
# T-24 cells = experiment: Cancer cell viability assay (XTT); type: cell-based, human; details: for % cell survival / Absorbance unit / Absorbance unit - Blank: triplicate, (hydrochloride)
# Procedure: as §1, §2, §3, §4, §5, §6, §7, §8, §9
# E. coli = experiment: Combination therapy: Fradiomycin with PDEA, visible growth; type: cell-based; details: Fradiomycin 0 μg/ml
# Procedure: (§10) Different concentrations of Fradiomycin in Mueller Hinton were prepared in 3 different concentrations of PDEA. E. coli and S. aureus were inoculated (10^5) and were incubated overnight. Readouts were “Clear” and “Foggy”.
# S. aureus = experiment: as above; type: cell-based; details: Fradiomycin 0 μg/ml
# Procedure: as §10
smiles,measurement,setting,value
"NCCSSc1ccccn1 [PDEA, 2-(Pyridyldithio)ethylamine (hydrochloride)]",visible growth readout,Candida albicans; 0.01 mM,Foggy
same,visible growth readout,Candida albicans; 0.025 mM,Foggy
same,visible growth readout,Candida albicans; 0.05 mM,Foggy
same,visible growth readout,Candida albicans; 0.1 mM,Foggy
same,visible growth readout,Candida albicans; 0.2 mM,Foggy
same,visible growth readout,Candida albicans; 0.4 mM,Foggy
same,visible growth readout,Candida albicans; 0.8 mM,Clear
same,visible growth readout,Candida albicans; 1.6 mM,Clear
same,MIC,"Candida albicans; Candida albicans, 24 h",400 to 800 µM
same,% cell survival,5637 cells; 12.5 μM,104.6875% and 96.65% and 91.2594%
same,Absorbance unit,5637 cells; 12.5 μM,1.229 and 1.224 and 1.119
same,Absorbance unit - Blank,5637 cells; 12.5 μM,1.072 and 1.069 and 0.971
same,% cell survival,5637 cells; 25 μM,109.082% and 103.9783% and 102.2556%
same,Absorbance unit,5637 cells; 25 μM,1.274 and 1.305 and 1.236
same,Absorbance unit - Blank,5637 cells; 25 μM,1.117 and 1.15 and 1.088
same,% cell survival,5637 cells; 50 μM,115.0391% and 99.55% and 123.5902%
same,Absorbance unit,5637 cells; 50 μM,1.335 and 1.256 and 1.463
same,Absorbance unit - Blank,5637 cells; 50 μM,1.178 and 1.101 and 1.315
same,% cell survival,5637 cells; 100 μM,83.4% and 52.8% and 57.42%
same,Absorbance unit,5637 cells; 100 μM,1.011 and 0.739 and 0.759
same,Absorbance unit - Blank,5637 cells; 100 μM,0.854 and 0.584 and 0.611
same,% cell survival,5637 cells; 200 μM,3.613% and 3.436% and 4.793%
same,Absorbance unit,5637 cells; 200 μM,0.194 and 0.193 and 0.199
same,Absorbance unit - Blank,5637 cells; 200 μM,0.037 and 0.038 and 0.051
same,cytotoxicity at 100 µM,"5637 cells; Homo sapiens, 100 μM PDEA, 24 hrs, read-out: cell viability reduced by",17 to 47%
same,cytotoxicity at 200 µM,"5637 cells; Homo sapiens, 200 μM PDEA, 24 hrs, read-out: cell viability reduced by",95 to 100%
same,% cell survival,T-24 cells; 12.5 μM,99.37% and 98.6% and 99.88%
same,Absorbance unit,T-24 cells; 12.5 μM,1.63 and 1.659 and 1.884
same,Absorbance unit - Blank,T-24 cells; 12.5 μM,1.429 and 1.483 and 1.686
same,% cell survival,T-24 cells; 25 μM,100.1391% and 95.0133% and 97.81%
same,Absorbance unit,T-24 cells; 25 μM,1.641 and 1.605 and 1.849
same,Absorbance unit - Blank,T-24 cells; 25 μM,1.44 and 1.429 and 1.651
same,% cell survival,T-24 cells; 50 μM,76.43% and 73.67% and 89.6327%
same,Absorbance unit,T-24 cells; 50 μM,1.3 and 1.284 and 1.711
same,Absorbance unit - Blank,T-24 cells; 50 μM,1.099 and 1.108 and 1.513
same,% cell survival,T-24 cells; 100 μM,65.3% and 80.52% and 62.09%
same,Absorbance unit,T-24 cells; 100 μM,1.14 and 1.387 and 1.246
same,Absorbance unit - Blank,T-24 cells; 100 μM,0.939 and 1.211 and 1.048
same,cytotoxicity at 50 µM,"T-24 cells; Homo sapiens, T-24, 50 μM PDEA, 24 hrs, read-out: cell viability reduced by",10 to 26%
same,cytotoxicity at 200 µM,"T-24 cells; Homo sapiens, T-24, 200 μM PDEA, 24 hrs, read-out: cell viability reduced by",83 to 100%
same,visible growth readout,E. coli; PDEA 0.0125 mM,Foggy
same,visible growth readout,E. coli; PDEA 0.025 mM,Foggy
same,visible growth readout,E. coli; PDEA 0.05 mM,Clear
same,visible growth readout,S. aureus; PDEA 0.0125 mM,Foggy
same,visible growth readout,S. aureus; PDEA 0.025 mM,Foggy
same,visible growth readout,S. aureus; PDEA 0.05 mM,Foggy
